The record followed here is US6649626B1, “N-substituted 1-(lactone) isoquinolones for treating nervous disorders” (Centre National de la Recherche Scientifique (CNRS), priority 1999, dated 2003).

The inhibition is the percentage by which the read-out fell short of the control.

Assay [1] addresses T1, α1β2γ2 subtype of the GABA receptor (Rattus norvegicus, UniProt P18508+P62813+P63138).
T1 construct: expressed in transfected cells; host or cells: Xenopus laevis oocytes (cRNA injection)
In words: Electrophysiology: modulation of GABA currents in Xenopus oocytes expressing recombinant GABA-A receptors. It is filed as cell-based. The settings on record: for % stimulation of the GABA currents / % stimulation of the GABA currents (100 μM): α1β2γ2 in oocytes; for % stimulation of the GABA currents (100 μM): 100 μM compound with GABA.

Assay [2] addresses T2, benzodiazepine-binding site of the GABA-A receptor (Rattus norvegicus, UniProt P18508+P62813).
T2 construct: IC50 Flu / BZ receptor; other: cerebellum (ce); other: cerebellum (ce; BZ1 subtype); other: 10 μM; cerebellum; other: 100 μM; other: 0.5 μM
In words: Displacement of tritiated flunitrazepam from brain membranes.

Assay [3] relates to GABA-binding site of the GABA-A receptor. Nature of the assay: Displacement of tritiated muscimol from brain membranes. Conditions: for Muscimol: stimulation: stimulation instead of displacement.

T2 sequence (P62813 28-455): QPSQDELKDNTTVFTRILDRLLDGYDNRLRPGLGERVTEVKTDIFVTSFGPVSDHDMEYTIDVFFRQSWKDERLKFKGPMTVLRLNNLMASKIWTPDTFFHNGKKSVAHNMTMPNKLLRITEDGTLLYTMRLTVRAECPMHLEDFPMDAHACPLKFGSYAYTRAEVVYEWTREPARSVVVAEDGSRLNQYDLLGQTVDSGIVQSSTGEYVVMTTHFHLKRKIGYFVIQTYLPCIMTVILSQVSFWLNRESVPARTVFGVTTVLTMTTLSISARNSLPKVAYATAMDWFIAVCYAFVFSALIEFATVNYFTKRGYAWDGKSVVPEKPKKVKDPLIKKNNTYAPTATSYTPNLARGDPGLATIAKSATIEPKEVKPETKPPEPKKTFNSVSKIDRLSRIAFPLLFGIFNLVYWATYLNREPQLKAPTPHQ
T2 sequence (P18508 39-466): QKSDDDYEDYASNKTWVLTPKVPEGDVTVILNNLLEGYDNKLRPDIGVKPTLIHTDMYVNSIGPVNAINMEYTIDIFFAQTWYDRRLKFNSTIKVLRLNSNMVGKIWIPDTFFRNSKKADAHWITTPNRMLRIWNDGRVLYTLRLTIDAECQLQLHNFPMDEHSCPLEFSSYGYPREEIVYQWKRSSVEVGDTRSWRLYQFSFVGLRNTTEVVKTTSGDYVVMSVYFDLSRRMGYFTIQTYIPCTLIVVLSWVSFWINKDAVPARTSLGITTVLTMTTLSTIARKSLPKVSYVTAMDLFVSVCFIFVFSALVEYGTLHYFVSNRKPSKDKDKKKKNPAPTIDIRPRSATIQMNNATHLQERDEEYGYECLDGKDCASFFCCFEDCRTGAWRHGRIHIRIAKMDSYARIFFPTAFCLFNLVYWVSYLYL
T2 sequence (P63138 26-474 partner): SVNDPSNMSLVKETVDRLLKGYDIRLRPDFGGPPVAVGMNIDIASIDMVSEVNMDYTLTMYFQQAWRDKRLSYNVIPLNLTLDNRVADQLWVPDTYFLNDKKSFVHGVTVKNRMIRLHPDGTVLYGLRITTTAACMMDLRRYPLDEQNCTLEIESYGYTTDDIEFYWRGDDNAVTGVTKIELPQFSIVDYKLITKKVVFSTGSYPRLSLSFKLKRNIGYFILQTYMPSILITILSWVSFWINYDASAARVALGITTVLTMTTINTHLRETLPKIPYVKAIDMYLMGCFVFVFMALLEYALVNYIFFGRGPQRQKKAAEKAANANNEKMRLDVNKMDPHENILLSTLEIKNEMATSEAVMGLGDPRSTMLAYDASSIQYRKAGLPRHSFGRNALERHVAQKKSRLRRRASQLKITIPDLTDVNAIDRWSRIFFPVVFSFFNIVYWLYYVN
T1 sequence (P62813 28-455): as the sequence (P62813 28-455) above
T1 sequence (P63138 25-474 limits assumed): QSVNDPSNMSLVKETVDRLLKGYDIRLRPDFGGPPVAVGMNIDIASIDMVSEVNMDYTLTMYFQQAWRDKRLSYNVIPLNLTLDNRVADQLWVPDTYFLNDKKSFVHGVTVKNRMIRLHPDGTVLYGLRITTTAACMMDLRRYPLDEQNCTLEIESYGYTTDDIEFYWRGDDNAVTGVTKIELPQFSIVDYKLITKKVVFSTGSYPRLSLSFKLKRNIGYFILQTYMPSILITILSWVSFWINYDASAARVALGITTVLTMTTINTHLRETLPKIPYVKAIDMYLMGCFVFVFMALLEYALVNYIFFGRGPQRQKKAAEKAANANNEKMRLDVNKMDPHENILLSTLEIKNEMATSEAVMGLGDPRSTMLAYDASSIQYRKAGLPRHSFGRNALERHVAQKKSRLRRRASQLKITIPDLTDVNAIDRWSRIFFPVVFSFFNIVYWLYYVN
T1 sequence (P18508 39-466): as the sequence (P18508 39-466) above

For `COc1cc2c(cc1OC)C(C1C=C(C)C(=O)O1)N(C(=O)OCc1ccccc1)CC2` (racemic) [Compound 47], the “% stimulation of the GABA currents” value in assay [1] (0.1 μM compound) is recorded as 0%. Moreover, the “% stimulation of the GABA currents (100 μM)” value (from here on “% stimulation … (100 μM)”) in assay [1] was found to be 60 ± 26%. In addition, in assay [2] (100 μM, tissue not stated), the “Inhibition of the tritiated ligands % Flu (100 μM)” value is given as 10%. The Displacement of muscimol in assay [3] (100 μM) is 100 μM = 0%.

As to `Cc1ccc(S(=O)(=O)N2CCc3ccccc3C2C2CCC(=O)O2)cc1` (single isomer, unassigned) [Compound 69], in assay [1], the “portion of the stimulatory activity due to a binding site distinct from those for the benzodiazepines” value is listed as less than 70% and the “% stimulation … (100 μM)” value was “+859 ± 75%”. Further, the “% stimulation … (100 μM)” value in assay [1] (listed as (−) 69) is on record as “+859%”. The “% of the stimulation inhibited by flumazenil” value in assay [1] (stimulation by 20 μM compound, 1 μM flumazenil) was 28%.

For `O=C1C=CC(C2c3ccccc3CCN2C(=O)Oc2ccccc2)O1` (racemic) [Compound 57], the “% stimulation of the GABA currents” value in assay [1] (0.1 μM compound) was determined as 0%. In addition, the “% stimulation … (100 μM)” value in assay [1] is “+175 ± 13%”. Besides, the “Inhibition of the tritiated ligands % Flu” value in assay [2] (0.5 μM, cerebellum) worked out at 35%; in assay [2] (0.5 μM, cortex), 25%; in assay [2] (10 μM, cerebellum) it was 90%; in assay [2] (10 μM, cortex), 75%. Besides, the “Inhibition of the tritiated ligands % Flu (100 μM)” value in assay [2] (100 μM, cerebellum) is 90%; in assay [2] (100 μM, cortex) it was 85%. Besides, the Displacement of muscimol in assay [3] (10 μM) was 0%. The “Muscimol: stimulation” value in assay [3] (100 μM) was 10-20%.

Consider `Cc1ccc(S(=O)(=O)N2C=Cc3ccccc3C2[C@H]2CCC(=O)O2)cc1` (mixture of isomers) [Compound 76, (±)-(1R,2′R)-2-N-Tosyl-1-(2,3,4,5-tetrahydro-5-oxo-2-furyl)-1,2-dihydroisoquinoline], for which the “% stimulation of the GABA currents” value in assay [1] (10 μM compound) came to 97 ± 2%. For the same molecule, the “% stimulation … (100 μM)” value in assay [1] is listed as “+481 ± 116%”. Besides, in assay [2] (100 μM, tissue not stated), the “Inhibition of the tritiated ligands % Flu (100 μM)” value was 0%. For the same molecule, in assay [3] (100 μM), the “Muscimol: stimulation” value is 20% stimulation at 100 μM.

Regarding `COc1cc2c(cc1OC)C(C1C=C(C)C(=O)O1)N(C(=O)OCc1ccccc1)CC2` (racemic) [Compound 46], in assay [1] (0.1 μM compound), the “% stimulation of the GABA currents” value is 0%. The “% stimulation … (100 μM)” value in assay [1] worked out at 24 ± 5%. In addition, the “Inhibition of the tritiated ligands % Flu (100 μM)” value in assay [2] (100 μM, tissue not stated) was 0%. The Displacement of muscimol in assay [3] (100 μM) came out at 100 μM = 0%.

In the case of `Cc1ccc(S(=O)(=O)N2CCc3ccccc3C2C2CCC(=O)O2)cc1` (single isomer, unassigned) [Compound 68], the figures for the “% stimulation … (100 μM)” value in assay [1] and in assay [1] (listed as (−) 68) were “+184 ± 43%” and “+184%”, respectively.

Regarding `COc1cc2c(cc1OC)[C@H]([C@@H]1C=C(C)C(=O)O1)N(C)CC2` (racemic) [Compound 30b], the “% stimulation … (100 μM)” value in assay [1] is recorded as −10%. Besides, the “Inhibition of the tritiated ligands % Flu (100 μM)” value in assay [2] (100 μM, tissue not stated) is recorded as “negligible”.

For the molecule `COc1cc2c(cc1OC)[C@H]([C@@H]1CCC(=O)O1)NCC2` (racemic) [Compound 27b, (±)-Threo-6,7-dimethoxy-1-(2,3,4,5-tetrahydro-5-oxo-2-furyl)-1,2,3,4-tetrahydroisoquinoline], in assay [1] (200 μM compound), the “% stimulation of the GABA currents” value is on record as 200 μM = −6%. In assay [2] (100 μM, tissue not stated), the “Inhibition of the tritiated ligands % Flu (100 μM)” value is “negligible”.

`COc1cc2c(cc1OC)[C@H]([C@@H]1C=CC(=O)O1)N(C(=O)OCc1ccccc1)CC2` (racemic) [Compound 32b, (±)-(1R,2′S)-1-(2,5-Dihydro-5-oxo-2-furyl)-2-N-benzyloxycarbonyl-6,7-dimethoxy-1,2,3,4-tetrahydroisoquinoline]: the Displacement of muscimol result in assay [3] (concentration not given) was “Displacement of muscimol = 0%”.

As for `Cc1ccc(S(=O)(=O)N2CCc3ccccc3C2C2CCC(=O)N2)cc1` (racemic) [Compound 73], the “% stimulation … (100 μM)” value in assay [1] is 26 ± 8%.

Turning to `COc1cc2c(cc1OC)C(C1CCC(=O)O1)N(C(=O)OCc1ccccc1)CC2` (racemic) [Compound 48, (±)-(1R,2′R)-2-N-Benzyloxycarbonyl-6,7-dimethoxy-1-(2,3,4,5-tetrahydro-5-oxo-2-furyl)-1,2,3,4-tetrahydroisoquinoline], the “% stimulation of the GABA currents” value in assay [1] (0.1 μM compound) stood at 0%. Moreover, the “% stimulation … (100 μM)” value in assay [1] is reported as “+159 ± 31%”; in assay [1] (listed as (+/−) 48), “+159%”. In assay [2] (100 μM, tissue not stated, read-out: Inhibition of the tritiated ligands % Flu (100 μM)), the inhibition at 100 µM came out at 35%.
